From patent US20090170847A1, “Imidazopyridine Derivatives Inhibiting Protein Kinase Activity, Method for the Preparation Thereof and Pharmaceutical Composition Containing Same” (priority 2006, published 2009) come the findings set out here.

What all share (assay type): biochemical
The target of one assay is T1, CDK-2/cycline A (Homo sapiens, UniProt P24941).
T1 construct: purchased Upstate
Briefly: CDK-2 enzyme inhibition (histone H1, 32P-ATP). How it is done: (§1) 0.33 mg/ml of MBP (Upstate), 100 μM of ATP and 0.25 μCi of ^32P-ATP were added to the buffer solution as substrates. 5 nM of recombinant Erk-1 (Upstate) was added the resulting mixture, and the mixture was reacted at 30° C. for 1 hour. The reaction was terminated by adding 5 μl of 5% phosphoric acid solution to 25 μl of the reaction mixture. 15 μl of the resulting solution was dropped on whatman p81 filter paper, which was then washed in 0.5% phosphoric acid solution for 10 mins. After repeating the washing 3 times, the filter paper was dried and cpm thereof was measured by a liquid scintillation counter (Packard, USA). Inhibitory capacities of the test compounds for the enzyme activity were assessed according to the same method as in GSK-3β analysis, and IC50 value was calculated.
The procedure of ERK-1 analysis was repeated to assess inhibitory capacities of the test compounds for the enzyme activity, except for using 2.5 μg of histone H1 (Upstate) and 100 nM of recombinant CDK-2/cycline A (Upstate).

The target in the next assay is T2, KDR (Homo sapiens, UniProt P35968).
T2 construct: purchased Upstate
T2 sequence (P35968 20-1356, species assumed): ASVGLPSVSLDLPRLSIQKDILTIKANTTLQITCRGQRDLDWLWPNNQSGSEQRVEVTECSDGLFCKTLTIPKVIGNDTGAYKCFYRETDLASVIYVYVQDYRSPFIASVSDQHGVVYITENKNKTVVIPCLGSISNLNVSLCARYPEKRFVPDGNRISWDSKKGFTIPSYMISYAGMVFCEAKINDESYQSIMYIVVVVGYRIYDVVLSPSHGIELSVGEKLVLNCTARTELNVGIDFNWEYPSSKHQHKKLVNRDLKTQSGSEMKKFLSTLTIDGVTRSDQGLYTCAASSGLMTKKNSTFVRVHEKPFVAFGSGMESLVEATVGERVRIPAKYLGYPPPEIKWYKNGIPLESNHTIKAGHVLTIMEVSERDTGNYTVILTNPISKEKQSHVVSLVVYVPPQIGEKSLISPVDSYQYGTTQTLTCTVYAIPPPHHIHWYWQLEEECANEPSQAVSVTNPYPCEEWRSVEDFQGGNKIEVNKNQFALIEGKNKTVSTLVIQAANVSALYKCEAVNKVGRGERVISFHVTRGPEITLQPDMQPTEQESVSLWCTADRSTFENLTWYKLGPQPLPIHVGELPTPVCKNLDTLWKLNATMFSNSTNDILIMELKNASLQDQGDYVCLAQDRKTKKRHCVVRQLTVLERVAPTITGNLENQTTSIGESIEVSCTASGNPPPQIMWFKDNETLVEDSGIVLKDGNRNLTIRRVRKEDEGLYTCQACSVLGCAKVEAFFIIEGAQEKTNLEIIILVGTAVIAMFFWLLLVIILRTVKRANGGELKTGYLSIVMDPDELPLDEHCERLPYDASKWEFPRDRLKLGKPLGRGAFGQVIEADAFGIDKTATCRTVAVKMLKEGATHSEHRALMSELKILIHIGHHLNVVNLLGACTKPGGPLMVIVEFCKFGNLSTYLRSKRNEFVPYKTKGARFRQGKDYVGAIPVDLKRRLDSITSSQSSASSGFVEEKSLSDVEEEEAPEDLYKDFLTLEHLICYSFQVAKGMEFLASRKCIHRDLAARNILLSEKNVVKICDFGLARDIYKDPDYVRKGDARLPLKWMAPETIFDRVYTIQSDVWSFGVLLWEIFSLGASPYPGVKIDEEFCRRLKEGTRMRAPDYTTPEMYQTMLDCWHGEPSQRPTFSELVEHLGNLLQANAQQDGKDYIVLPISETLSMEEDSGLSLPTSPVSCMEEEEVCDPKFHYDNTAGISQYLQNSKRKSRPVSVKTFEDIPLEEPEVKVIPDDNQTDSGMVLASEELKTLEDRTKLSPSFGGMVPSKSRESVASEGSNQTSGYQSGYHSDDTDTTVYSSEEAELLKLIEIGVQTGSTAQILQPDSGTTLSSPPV
Briefly: KDR enzyme inhibition (Biotin-polyE4Y, alphascreen). Conditions: 0.1 μM ATP. As for the experimental part:
(§2) The test solution prepared above by dissolving a test compound in DMSO was added to the reaction solution in an amount of less than 5% based on the total reaction solution to analyze the capacity for enzyme inhibitory activity. The cpm value obtained when the test compounds was present relative to the cpm value in the absence of the test compound was represented by percentage, and IC50 (μM) was determined as the concentration of the test compound required to inhibit the enzyme activity by 50% relatively to the control solution.
The compounds prepared in the Examples were dissolved in dimethylsulfoxide (DMSO) at a concentration of 12.5 mM to prepare test solution, and enzyme reaction was conducted in a buffer solution containing 50 mM tris-HCl (pH 7.5), 5 mM MgCl2, 1 mM MnCl2, 0.01% tween-20 and 2 mM of DTT. 1 nM of Biotin-polyE4Y (Packard) and 0.1 μM of ATP were added to the buffer solution as substrates. 2 nM of recombinant KDR (Upstate) was added the resulting mixture and reaction was carried out at 30° C. for 1 hour. 10 μl of a diluted solution prepared by diluting alphascreen phosphotyrosine (T-Tyr-100, Packard) beads with a solution containing 6.25 mM of HEPES (pH 7.4), 250 mM of NaCl, 100 Mm EDTA, and 0.25% BSA was added to 15 μl of the KDR reaction solution. After a reaction at a room temperature for 1 hour, alphascreen signal was measured by a fusion a-FP (Packard). Inhibitory capacities of the test compounds for the enzyme activity were assessed according to the same method as in GSK-3β analysis, and IC50 value was calculated.

Another assay deals with T3, ERK-1 (Homo sapiens, UniProt P27361).
T3 construct: purchased Upstate
T3 sequence (P27361 whole entry, species assumed): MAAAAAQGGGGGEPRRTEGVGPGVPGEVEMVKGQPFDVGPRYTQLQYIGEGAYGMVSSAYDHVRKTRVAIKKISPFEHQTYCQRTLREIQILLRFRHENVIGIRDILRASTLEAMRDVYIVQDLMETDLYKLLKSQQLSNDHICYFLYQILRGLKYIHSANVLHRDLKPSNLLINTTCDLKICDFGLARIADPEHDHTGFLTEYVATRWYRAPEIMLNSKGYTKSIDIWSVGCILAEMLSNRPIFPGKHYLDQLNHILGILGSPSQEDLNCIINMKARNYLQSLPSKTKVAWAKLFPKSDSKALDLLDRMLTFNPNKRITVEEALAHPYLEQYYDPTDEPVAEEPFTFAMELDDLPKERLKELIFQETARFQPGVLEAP
Briefly: ERK-1 enzyme inhibition (MBP, 32P-ATP). The settings on record: ERK-1, 100 μM ATP. As for the experimental part: as §2
as §1, with “The compounds prepared in the Examples were dissolved in dimethylsulfoxide (DMSO) at a concentration of 12.5 mM to prepare test compounds and enzyme reaction was conducted in a buffer solution containing 50 mM of tris-HCl (pH 7.5), 10 mM of MgCl2, 1 mM of EGTA, 1 mM of EDTA and 1 mM of DTT. 0.33” for “0.33”

In a further assay the target is T4, PDK-1 (Homo sapiens, UniProt O15530).
T4 construct: purchased Upstate
T4 sequence (O15530 1-556): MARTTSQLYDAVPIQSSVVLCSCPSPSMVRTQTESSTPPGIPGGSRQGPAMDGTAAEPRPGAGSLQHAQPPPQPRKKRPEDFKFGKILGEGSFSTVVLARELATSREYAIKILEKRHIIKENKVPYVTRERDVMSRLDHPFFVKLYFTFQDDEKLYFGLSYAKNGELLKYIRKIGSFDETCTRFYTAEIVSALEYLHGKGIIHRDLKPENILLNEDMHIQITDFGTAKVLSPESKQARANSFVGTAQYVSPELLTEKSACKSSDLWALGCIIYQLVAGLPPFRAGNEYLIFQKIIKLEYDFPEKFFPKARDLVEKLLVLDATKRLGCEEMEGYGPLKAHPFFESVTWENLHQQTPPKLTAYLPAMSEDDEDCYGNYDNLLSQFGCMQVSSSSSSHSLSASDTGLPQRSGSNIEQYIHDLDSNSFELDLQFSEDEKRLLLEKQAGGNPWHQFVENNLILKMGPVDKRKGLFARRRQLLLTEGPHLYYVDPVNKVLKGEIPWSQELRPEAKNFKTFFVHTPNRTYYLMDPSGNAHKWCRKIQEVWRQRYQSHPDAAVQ
Put plainly: PDK-1 enzyme inhibition (PDKtide, Kinase glo). As for the experimental part: (§3) A test solution was prepared by dissolving one of the compounds of the Examples in DMSO at a concentration of 12.5 mM. Enzyme reaction was conducted in a buffer solution containing 20 mM of HEPES (pH 7.5), 5 mM MgCl2, 0.5 mM ethylene glycol bis(b-aminoethylether) tetraacetic acid (EGTA), 200 mM of KCl, 1 mM of DTT and 0.05% triton X-100. 100 μM of Kemptide peptide (Upstate) and 1 μM of ATP were added to the buffer solution as substrates. Recombinant aurora kinase (Upstate) was added the resulting mixture at a concentration of 10 nM and reaction was carried out at 30° C. for 1 hour. 25 μl of the resulting solution was mixed with 25 μl of Kinase glo (promega), thereby inducing the second reaction by luciferase. The amount of remained ATP was measured by fusion a-FP (Packard, USA). Inhibitory capacities of the test compounds for the enzyme activity were assessed according to the same method as in GSK-3β analysis, and IC50 value was calculated.
The procedure of aurora kinase A analysis was repeated to assess inhibitory capacities of the test compounds for the enzyme activity, except for using a buffer solution containing 50 mM of tris-HCl (pH 7.5), 10 mM of MgCl2, 1 mM of EGTA and 1 mM of […]; 2.5 μM of PDKtide (peptide, Upstate) (Upstate); and 31.5 nM of recombinant PDK1 (Upstate).

A further assay has as its target T5, JNK-1 (Homo sapiens, UniProt P45983).
T5 construct: purchased Upstate
Briefly: JNK-1 enzyme inhibition (GST-ATF2, 32P-ATP).

The target of the next assay is T6, Aurora Kinase A (Homo sapiens, UniProt O14965).
T6 construct: purchased Upstate
T6 sequence (O14965 1-403): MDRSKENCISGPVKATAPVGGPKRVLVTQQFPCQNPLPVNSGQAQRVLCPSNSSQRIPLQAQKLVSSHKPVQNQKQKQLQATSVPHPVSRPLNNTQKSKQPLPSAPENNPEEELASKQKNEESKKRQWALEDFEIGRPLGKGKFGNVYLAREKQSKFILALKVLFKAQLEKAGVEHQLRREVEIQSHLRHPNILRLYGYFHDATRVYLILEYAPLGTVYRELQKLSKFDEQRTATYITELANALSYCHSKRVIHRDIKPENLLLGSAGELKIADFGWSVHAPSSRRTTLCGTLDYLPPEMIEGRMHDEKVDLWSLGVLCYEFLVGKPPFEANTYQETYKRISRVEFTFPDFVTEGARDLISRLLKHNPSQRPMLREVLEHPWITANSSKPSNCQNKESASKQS
Briefly: Aurora kinase A enzyme inhibition (Kemptide, Kinase glo). The settings on record: 1 μM ATP. How it is done:
as §2, §3

The target in assay [1] is T7, p38 Mitogen-activated protein kinase (MAPK) (Homo sapiens, UniProt Q16539).
T7 construct: purchased Upstate
T7 sequence (Q16539 whole entry): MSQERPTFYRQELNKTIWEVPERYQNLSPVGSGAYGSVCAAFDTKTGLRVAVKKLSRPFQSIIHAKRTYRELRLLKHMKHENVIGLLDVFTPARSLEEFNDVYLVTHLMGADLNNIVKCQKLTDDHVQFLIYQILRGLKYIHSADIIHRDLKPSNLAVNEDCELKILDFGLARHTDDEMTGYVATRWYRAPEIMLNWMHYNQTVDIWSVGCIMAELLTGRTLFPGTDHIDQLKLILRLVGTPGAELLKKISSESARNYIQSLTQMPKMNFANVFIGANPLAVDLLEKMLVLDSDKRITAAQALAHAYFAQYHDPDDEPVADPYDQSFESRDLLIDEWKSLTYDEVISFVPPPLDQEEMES
Put plainly: p38 MAPK enzyme inhibition (histone H1, 32P-ATP). The settings on record: p38 MAPK (recombinant p38a).
Protocol: The procedure of ERK-1 analysis was repeated to assess inhibitory capacities of the test compounds for the enzyme activity, except for using 2.5 μg of histone H1 (Upstate) and 5 nM of recombinant p38a (Upstate).

T5 sequence (P45983 whole entry, species assumed): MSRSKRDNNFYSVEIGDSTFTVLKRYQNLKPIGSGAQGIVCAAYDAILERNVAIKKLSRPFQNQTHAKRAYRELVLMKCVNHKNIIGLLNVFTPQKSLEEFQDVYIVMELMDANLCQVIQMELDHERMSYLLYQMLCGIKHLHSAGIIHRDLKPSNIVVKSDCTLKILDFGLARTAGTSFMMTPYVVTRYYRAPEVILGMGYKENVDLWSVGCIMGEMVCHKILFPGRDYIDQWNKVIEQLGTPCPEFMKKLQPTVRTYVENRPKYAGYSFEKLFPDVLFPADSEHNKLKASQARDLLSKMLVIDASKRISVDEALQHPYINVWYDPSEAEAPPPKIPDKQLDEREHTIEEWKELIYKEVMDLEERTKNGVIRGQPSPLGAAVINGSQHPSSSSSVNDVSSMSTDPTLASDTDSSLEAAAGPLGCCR

For the compound `CCS(=O)(=O)Nc1ccc(CCNC(=O)c2ccnc3[nH]c(-c4ccc(F)cc4)nc23)cc1` [Example 198, 2-(4-fluoro-phenyl)-3H-imidazo[4,5-b]pyridine-7-carboxylic acid[2-(4-ethanesulfonylamino-phenyl)-ethyl]-amide], the IC50 (in general, the point on the concentration scale where inhibition reaches its midpoint) was 2400 nM on CDK-2/cycline A and 12500 nM against KDR.
Regarding `Cc1ccncc1NC(=O)c1ccnc2[nH]c(-c3ccc(F)cc3)nc12` [Example 241, 2-(4-fluoro-phenyl)-3H-imidazo[4,5-b]pyridine-7-carboxylic acid(4-methyl-pyridin-3-yl)-amide], the IC50 against ERK-1 was found to be 16500 nM; against PDK-1 it was 28500 nM.
For `COc1ccncc1NC(=O)c1ccnc2[nH]c(-c3ccc(F)cc3)nc12` [Example 246, 2-(4-fluoro-phenyl)-3H-imidazo[4,5-b]pyridine-7-carboxylic acid(4-methyloxy-pyridin-3-yl)-amide], the IC50 is 225 nM against CDK-2/cycline A, 180 nM against JNK-1 and 520 nM against KDR.
`CCOc1ccncc1NC(=O)c1ccnc2[nH]c(-c3ccc(F)cc3)nc12` [Example 287, 2-(4-fluoro-phenyl)-3H-imidazo[4,5-b]pyridine-7-carboxylic acid(4-ethoxy-pyridin-3-yl)-amide]: the 50% inhibitory concentration (IC50) against CDK-2/cycline A was 120 nM; against JNK-1, 460 nM; on KDR, 1500 nM.
For the compound `Cc1ccncc1NC(=O)c1ccnc2[nH]c(-c3ccc(NCCCN4CCCC4)cc3)nc12` [Example 340, 2-[4-(3-pyrrolidin-1-yl-propylamino)-phenyl]-3H-imidazo[4,5-b]pyridine-7-carboxylic acid(4-methyl-pyridin-3-yl)-amide], the figures for the IC50 against CDK-2/cycline A and on JNK-1 were 400 nM and 100 nM, respectively.
`Cc1ccncc1NC(=O)c1ccnc2[nH]c(-c3ccc(NCCCCN(C)C)cc3)nc12` [Example 343, 2-[4-(4-dimethylamino-butylamino)-phenyl]-3H-imidazo[4,5-b]pyridine-7-carboxylic acid(4-methyl-pyridin-3-yl)-amide]: the IC50 against Aurora Kinase A is 198 nM; on CDK-2/cycline A, 300 nM; at PDK-1, 3100 nM; against KDR, 170 nM.
In the case of `Cc1ccncc1NC(=O)c1ccnc2[nH]c(-c3cccc(F)c3)nc12` [Example 451, 2-(3-fluoro-phenyl)-3H-imidazo[4,5-b]pyridine-7-carboxylic acid(4-methyl-pyridin-3-yl)-amide], the IC50 against CDK-2/cycline A was found to be 360 nM; in assay [1], 3250 nM; at JNK-1 it was 10500 nM; against KDR it was 1650 nM.
Take `Cc1ccncc1NC(=O)c1c(Br)cnc2[nH]c(-c3cccc(F)c3)nc12` [Example 452, 6-bromo-2-(3-fluoro-phenyl)-3H-imidazo[4,5-b]pyridine-7-carboxylic acid(4-methyl-pyridin-3-yl)-amide]: the IC50 on CDK-2/cycline A was 350 nM; at ERK-1, 19000 nM.
